The values that follow come from patent US4190575A, “Polypeptides related to somatostatin” (American Home Products Corporation, priority 1977, dated 1980).

Common to all, as to type: in vivo
One assay deals with growth hormone (GH). The assay is described as follows: Arginine-stimulated growth hormone (GH) in Nembutal-treated rats, radioimmunoassay. Also on record: GH: reference not given here. The note with it: for GH: albino male rats, *p<0.01. As to the method:
(§1) The biological activity of the peptides of Examples 2 and 4 were determined by the following procedure:
(§2) Albino male rats are administered Nembutal intraperitoneally at a dose of 50 milligrams per kilogram. Fifteen minutes later a subcutaneous injection of the test compound of physiological saline is administered. Ten minutes later 0.5 milliliters of arginine (300 milligrams per milliliter, pH 7.2) is injected into the heart. Five minutes after receipt of the arginine the rats are decapitated and blood is collected into trasylol-EDTA. An appropriate aliquot is assayed for growth hormone (GH), insulin, and glucagon by radioimmunoassay.

The next assay deals with glucagon. The experiment in a line: Arginine-stimulated glucagon in Nembutal-treated rats, radioimmunoassay. The note with it: for Glucagon: albino male rats, *p<0.01. As to the method:
as §1, §2

The next assay concerns insulin. The assay is described as follows: Arginine-stimulated insulin in Nembutal-treated rats, radioimmunoassay. To be noted: for Insulin: albino male rats. The arrangement: effect on insulin levels: dose or concentration left out as unconfirmed. How it is done: as §1, §2
For the next assay, the system named is GH secretion. The assay is described as follows: Duration of effect on GH secretion in rats treated with Nembutal. Also on record: duration of significant inhibition of GH: dose or concentration left out as unconfirmed. As to the method: The peptides of Examples 2 and 4 were also tested for duration of their effect on GH secretion in rats treated with Nembutal.

[1] abbreviates: dose 200 ug/kg subcutaneous, blood 15 min after compound, 5 min after arginine.
The mark [2] stands for this setting: dose 200 ug/kg subcutaneous, blood 15 min after compound, 5 min after arginine, *p<0.01.

Where two headings read alike, the source gives them in different places. Bridge positions count the residues as written; N and C are the ends. Square brackets hold non-standard residues; d marks the D form. Peptide text beside a SMILES is read from it.

For the molecule `C[C@@H](O)[C@@H]1NC(=O)[C@H](Cc2ccccc2)NC(=O)[C@H]([C@@H](C)O)NC(=O)[C@H](CCCCN)NC(=O)[C@@H](Cc2c[nH]c3ccccc23)NC(=O)[C@H](Cc2ccccc2)NC(=O)[C@H](Cc2ccccc2)NC(=O)[C@H](CCC(=O)O)NC(=O)[C@H](CCCNC(=N)N)NC(=O)[C@@H](N)CSSC[C@@H](C(=O)O)NC(=O)[C@H](CO)NC1=O` [Example 2, L-Cysteinyl-L-arginyl-L-glutamyl-L-phenylalanyl-L-phenylalanyl-D-tryptophyl-L-lysyl-L-threonyl-L-phenylalanyl-L-threonyl-L-seryl-L-cysteine cyclic (1-12) disulfide] (H-CREFF[dW]KTFTSC-OH; disulfide 1-12), the GH in the assay with growth hormone (GH) (dose 40 ug/kg subcutaneous) is 28 ± 5 ng/mL; in the assay with growth hormone (GH) (setting [1]), 42 ± 6 ng/mL. For the same molecule, the reducing growth hormone entry in the assay on growth hormone (GH) (dose of 40 mg/kg) is given as “effective agents for reducing growth hormone”. Besides, the Glucagon with glucagon (dose 40 ug/kg subcutaneous) amounted to 12 ± 2 pg/mL; with glucagon (setting [1]) it was 1.5 ± 1 pg/mL. Also, the reducing glucagon result in the assay with glucagon (dose of 40 mg/kg) was “effective agents for reducing growth hormone and glucagon”. Further, the results for the Insulin with insulin (dose 40 ug/kg subcutaneous) and with insulin (setting [2]) were 158 ± 57 μU/ml and 115 ± 16 μU/ml, respectively. Further, the “effect on insulin levels” value with insulin (dose of 40) is listed as “without materially affecting insulin levels”.

Regarding `C[C@@H](O)[C@@H]1NC(=O)[C@H](Cc2ccccc2)NC(=O)[C@H]([C@@H](C)O)NC(=O)[C@H](CCCCN)NC(=O)[C@@H](Cc2c[nH]c3ccccc23)NC(=O)[C@H](Cc2ccccc2)NC(=O)[C@H](Cc2ccccc2)NC(=O)[C@H](CCC(=O)O)NC(=O)[C@H](Cc2c[nH]cn2)NC(=O)[C@@H](N)CSSC[C@@H](C(=O)O)NC(=O)[C@H](CO)NC1=O` [Example 4, L-Cysteinyl-L-histidyl-L-glutamyl-L-phenylalanyl-L-phenylalanyl-D-tryptophyl-L-lysyl-L-threonyl-L-phenylalanyl-L-threonyl-L-seryl-L-cysteine cyclic (1-12) disulfide] (H-CHEFF[dW]KTFTSC-OH; disulfide 1-12), the “inhibition of GH at 2 and 4 hours” value in the assay on GH secretion (at 2 and 4 hours) was “no significant inhibition of GH”. The GH with growth hormone (GH) (dose 50 ug/kg subcutaneous) is 84 ± 17 ng/mL; with growth hormone (GH) (setting [1]), 107 ± 29 ng/mL. Further, the reducing growth hormone result in the assay on growth hormone (GH) (dose of 50 mg/kg) is “effective agents for reducing growth hormone”. The reducing glucagon entry with glucagon is “effective agents for reducing growth hormone and glucagon”. The values for the Glucagon with glucagon (dose 50 ug/kg subcutaneous) and in the assay on glucagon (setting [1]) were 10 ± 4 pg/mL and 4 ± 2 pg/mL, respectively. Besides, the values for the Insulin in the assay with insulin (dose 50 ug/kg subcutaneous) and in the assay on insulin (setting [2]) were 322 ± 40 μU/ml and 205 ± 36 μU/ml, respectively. The “effect on insulin levels” value in the assay on insulin (dose of 50) is reported as “without materially affecting insulin levels”.

“tert-Butyloxycarbonyl-S-p-methoxybenzyl-L-cysteinyl-N^gn -tosyl-L-arginyl-γ-benzyl-L-glutamyl-L-phenylalanyl-L-phenylalanyl-D-tryptophyl-N^ε -2-chloro-benzyloxycarbonyl-L-lysyl-O-benzyl-L-threonyl-L-phenylalanyl-O-benzyl-L-threonyl-O-benzyl-L-seryl-S-p-methoxybenzyl-L-cysteine hydroxymethyl-polystyrene ester [Example 1]”: the “duration of significant inhibition of GH” value in the assay with GH secretion ((S.C.)) is on record as “at least 4 hours”.
